How the values were obtained:
Experiment in all cases: Test B pre-/postemergence plant response
Assay type in all cases: in vivo
[1] = tested on: Italian ryegrass (Lolium multiflorum); conditions: for Ryegrass, Italian plant response rating (0 to 100 scale): 62 g ai/ha, postemergence, 0 is no effect, 100 is complete control; for Plant response rating, Ryegrass, Italian: Postemergence
Method in brief: (§1)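 Seeds were sown in loam soil/sand blend and treated preemergence with compound in non-phytotoxic solvent mixture containing surfactant; postemergence sprays, same formulation, went onto plants 2 to 18 cm (1- to 4-leaf stage) in peat-based planting medium. Greenhouse 13 to 15 days, then visual rating versus untreated controls, 0 (no effect) to 100 (complete control).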

[2] = tested on: bermudagrass (Cynodon dactylon); conditions: for Bermudagrass plant response rating (0 to 100 scale): 62 g ai/ha, 0 is no effect
Method in brief: as §1

corn (Zea mays) = conditions: for Corn plant response rating (0 to 100 scale): 62 g ai/ha, 0 is no effect
Method in brief: as §1

[3] = tested on: downy bromegrass (Bromus tectorum); conditions: for Bromegrass, Downy plant response rating (0 to 100 scale): 62 g ai/ha, 0 is no effect
Method in brief: as §1

[4] = tested on: giant foxtail (Setaria faberii); conditions: for Foxtail, Giant plant response rating (0 to 100 scale): 62 g ai/ha, 0 is no effect
Method in brief: as §1

[5] = tested on: goosegrass (Eleusine indica); conditions: for Goosegrass plant response rating (0 to 100 scale): 62 g ai/ha, 0 is no effect
Method in brief: as §1

[6] = tested on: green foxtail (Setaria viridis); conditions: for Foxtail, Green plant response rating (0 to 100 scale): 62 g ai/ha, 0 is no effect
Method in brief: as §1

[7] = tested on: johnsongrass (Sorghum halepense); conditions: for Johnsongrass plant response rating (0 to 100 scale): 62 g ai/ha, 0 is no effect
Method in brief: as §1

[8] = tested on: large crabgrass (Digitaria sanguinalis); conditions: for Crabgrass, Large plant response rating (0 to 100 scale): 62 g ai/ha, 0 is no effect
Method in brief: as §1

[9] = tested on: morningglory (Ipomoea coccinea); conditions: for Morningglory plant response rating (0 to 100 scale): 62 g ai/ha, 0 is no effect
Method in brief: as §1

[10] = tested on: ragweed (common ragweed, Ambrosia elatior); conditions: for Ragweed plant response rating (0 to 100 scale): 62 g ai/ha, postemergence, 0 is no effect, 100 is complete control; for Plant response rating, Ragweed: Postemergence
Method in brief: as §1

[11] = tested on: woolly cupgrass (Eriochloa villosa); conditions: for Cupgrass, Woolly plant response rating (0 to 100 scale): 62 g ai/ha, 0 is no effect
Method in brief: as §1

[12] = tested on: yellow nutsedge (Cyperus esculentus); conditions: for Nutsedge, Yellow plant response rating (0 to 100 scale): 62 g ai/ha, 0 is no effect
Method in brief: as §1

[13] = 31 g ai/ha, 0 to 100 scale (0 no effect, 100 complete control)
[14] = 125 g ai/ha, scale 0 to 100 (0 no effect, 100 complete control)
[15] = 250 g ai/ha, scale 0 to 100 (0 no effect, 100 complete control), 13 to 15 days
[16] = postemergence, 100 is complete control, 13 to 15 days
[17] = Postemergence, 31 g ai/ha, 0 to 100 scale (0 no effect, 100 complete control)
[18] = Postemergence, 125 g ai/ha, scale 0 to 100 (0 no effect, 100 complete control)
[19] = Postemergence, 250 g ai/ha, scale 0 to 100 (0 no effect, 100 complete control), 13 to 15 days
[20] = 250 g ai/ha, scale 0 to 100 (0 no effect, 100 complete control)
[21] = 31 g ai/ha, postemergence, scale 0 to 100, 0 is no effect, 100 is complete control
[22] = Postemergence, 250 g ai/ha, scale 0 to 100 (0 no effect, 100 complete control)

## CCCCn1c(-c2cccc(Cl)c2)ncc(C(=O)C2=C(O)CCCC2=O)c1=O [Compound 146]
[1]; 13 to 15 days
  Ryegrass, Italian plant response rating (0 to 100 scale): 5
[1]; [13]
  Plant response rating, Ryegrass, Italian: 5
[1]; [14]
  Plant response rating, Ryegrass, Italian: 10
[1]; [15]
  Plant response rating, Ryegrass, Italian: 15
[2]; [16]
  Bermudagrass plant response rating (0 to 100 scale): 90
[2]; [17]
  Plant response rating, Bermudagrass: 85
[2]; [18]
  Plant response rating, Bermudagrass: 100
[2]; [19]
  Plant response rating, Bermudagrass: 100
Corn (Zea mays); [16]
  Corn plant response rating (0 to 100 scale): 5
Corn (Zea mays); [17]
  Plant response rating, Corn: 0
Corn (Zea mays); [18]
  Plant response rating, Corn: 20
Corn (Zea mays); [19]
  Plant response rating, Corn: 35
[3]; [16]
  Bromegrass, Downy plant response rating (0 to 100 scale): 5
[3]; [17]
  Plant response rating, Bromegrass, Downy: 0
[3]; [18]
  Plant response rating, Bromegrass, Downy: 10
[3]; [19]
  Plant response rating, Bromegrass, Downy: 35
[4]; [16]
  Foxtail, Giant plant response rating (0 to 100 scale): 85
[4]; [17]
  Plant response rating, Foxtail, Giant: 75
[4]; [18]
  Plant response rating, Foxtail, Giant: 95
[4]; [19]
  Plant response rating, Foxtail, Giant: 98
[5]; [16]
  Goosegrass plant response rating (0 to 100 scale): 90
[5]; [17]
  Plant response rating, Goosegrass: 75
[5]; [18]
  Plant response rating, Goosegrass: 95
[5]; [19]
  Plant response rating, Goosegrass: 95
[6]; [16]
  Foxtail, Green plant response rating (0 to 100 scale): 55
[6]; [17]
  Plant response rating, Foxtail, Green: 50
[6]; [18]
  Plant response rating, Foxtail, Green: 80
[6]; [19]
  Plant response rating, Foxtail, Green: 90
[7]; [16]
  Johnsongrass plant response rating (0 to 100 scale): 45
[7]; [17]
  Plant response rating, Johnsongrass: 45
[7]; [18]
  Plant response rating, Johnsongrass: 70
[7]; [19]
  Plant response rating, Johnsongrass: 95
[8]; [16]
  Crabgrass, Large plant response rating (0 to 100 scale): 75
[8]; [17]
  Plant response rating, Crabgrass, Large: 65
[8]; [18]
  Plant response rating, Crabgrass, Large: 85
[8]; [19]
  Plant response rating, Crabgrass, Large: 98
[9]; [16]
  Morningglory plant response rating (0 to 100 scale): 15
[9]; [17]
  Plant response rating, Morningglory: 0
[9]; [18]
  Plant response rating, Morningglory: 85
[9]; [19]
  Plant response rating, Morningglory: 95
[10]; 13 to 15 days
  Ragweed plant response rating (0 to 100 scale): 80
[10]; [13]
  Plant response rating, Ragweed: 65
[10]; [14]
  Plant response rating, Ragweed: 98
[10]; [15]
  Plant response rating, Ragweed: 98
[11]; [16]
  Cupgrass, Woolly plant response rating (0 to 100 scale): 65
[11]; [17]
  Plant response rating, Cupgrass, Woolly: 60
[11]; [18]
  Plant response rating, Cupgrass, Woolly: 65
[11]; [19]
  Plant response rating, Cupgrass, Woolly: 75
[12]; [16]
  Nutsedge, Yellow plant response rating (0 to 100 scale): 10
[12]; [17]
  Plant response rating, Nutsedge, Yellow: 5
[12]; [18]
  Plant response rating, Nutsedge, Yellow: 20
[12]; [19]
  Plant response rating, Nutsedge, Yellow: 40

## CCCCn1c(-c2cc(F)cc(F)c2)ncc(C(=O)C2=C(O)CCCC2=O)c1=O [Compound 121]
[1]; 13 to 15 days
  Ryegrass, Italian plant response rating (0 to 100 scale): 40
[1]; [14]
  Plant response rating, Ryegrass, Italian: 70
[1]; [20]
  Plant response rating, Ryegrass, Italian: 75
[2]; [21]
  Plant response rating, Bermudagrass: 95
[2]; [16]
  Bermudagrass plant response rating (0 to 100 scale): 98
[2]; [18]
  Plant response rating, Bermudagrass: 100
[2]; [22]
  Plant response rating, Bermudagrass: 100
Corn (Zea mays); [21]
  Plant response rating, Corn: 25
Corn (Zea mays); [16]
  Corn plant response rating (0 to 100 scale): 55
Corn (Zea mays); [18]
  Plant response rating, Corn: 55
Corn (Zea mays); [22]
  Plant response rating, Corn: 85
[3]; [21]
  Plant response rating, Bromegrass, Downy: 25
[3]; [16]
  Bromegrass, Downy plant response rating (0 to 100 scale): 50
[3]; [18]
  Plant response rating, Bromegrass, Downy: 80
[3]; [22]
  Plant response rating, Bromegrass, Downy: 90
[4]; [21]
  Plant response rating, Foxtail, Giant: 95
[4]; [16]
  Foxtail, Giant plant response rating (0 to 100 scale): 98
[4]; [18]
  Plant response rating, Foxtail, Giant: 98
[4]; [22]
  Plant response rating, Foxtail, Giant: 98
[5]; [21]
  Plant response rating, Goosegrass: 95
[5]; [16]
  Goosegrass plant response rating (0 to 100 scale): 98
[5]; [18]
  Plant response rating, Goosegrass: 98
[5]; [22]
  Plant response rating, Goosegrass: 98
[6]; [21]
  Plant response rating, Foxtail, Green: 80
[6]; [16]
  Foxtail, Green plant response rating (0 to 100 scale): 90
[6]; [18]
  Plant response rating, Foxtail, Green: 100
[6]; [22]
  Plant response rating, Foxtail, Green: 100
[7]; [21]
  Plant response rating, Johnsongrass: 20
[7]; [16]
  Johnsongrass plant response rating (0 to 100 scale): 70
[7]; [22]
  Plant response rating, Johnsongrass: 85
[8]; [21]
  Plant response rating, Crabgrass, Large: 85
[8]; [16]
  Crabgrass, Large plant response rating (0 to 100 scale): 90
[8]; [18]
  Plant response rating, Crabgrass, Large: 95
[8]; [22]
  Plant response rating, Crabgrass, Large: 98
[9]; [21]
  Plant response rating, Morningglory: 5
[9]; [16]
  Morningglory plant response rating (0 to 100 scale): 20
[9]; [18]
  Plant response rating, Morningglory: 25
[9]; [22]
  Plant response rating, Morningglory: 45
[10]; 13 to 15 days
  Ragweed plant response rating (0 to 100 scale): 85
[10]; [14]
  Plant response rating, Ragweed: 90
[10]; [20]
  Plant response rating, Ragweed: 95
[11]; [21]
  Plant response rating, Cupgrass, Woolly: 95
[11]; [16]
  Cupgrass, Woolly plant response rating (0 to 100 scale): 100
[11]; [18]
  Plant response rating, Cupgrass, Woolly: 100
[11]; [22]
  Plant response rating, Cupgrass, Woolly: 100
[12]; [21]
  Plant response rating, Nutsedge, Yellow: 5
[12]; [16]
  Nutsedge, Yellow plant response rating (0 to 100 scale): 45
[12]; [18]
  Plant response rating, Nutsedge, Yellow: 45
[12]; [22]
  Plant response rating, Nutsedge, Yellow: 50

Reference: patent US8952024B2, “Herbicidal pyrimidone derivatives” (E I du Pont de Nemours and Company, priority 2009, dated 2015)
